Source: ChEMBL document CHEMBL1201862, “PubChem BioAssay data set” (2004)
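1) Cells in 96-well plates. 2) Compound, 48 h, 5 concentrations. 3) Linear interpolation between surrounding doses. 4) Unreached endpoint = highest concentration. Here, GI50 denotes the concentration required for 50% inhibition of growth.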 Active and inactive are the calls of the source. No stated cut-off is given here; in the data, active = GI50 up to about 1.1 µM and inactive = higher.

Columns and labels:
Assay in all cases: NCI tumour cell line growth inhibition, 48 h
A498 = tested on: A498
ACHN = tested on: ACHN
BT-549 = tested on: BT-549
COLO 205 = tested on: COLO 205
HCC 2998 = tested on: HCC 2998
HCT-116 = tested on: HCT-116
KM12 = tested on: KM12
MDA-N = tested on: MDA-N
Malme-3M = tested on: Malme-3M
NCI-H23 = tested on: NCI-H23
OVCAR-5 = tested on: OVCAR-5
OVCAR-8 = tested on: OVCAR-8
RPMI-8226 = tested on: RPMI-8226
SF-295 = tested on: SF-295
SF-539 = tested on: SF-539
SK-MEL-28 = tested on: SK-MEL-28
TK-10 = tested on: TK-10
UACC-62 = tested on: UACC-62
CCRF-CEM = tested on: CCRF-CEM

Row | SMILES | GI50 (A498) | GI50 (ACHN) | GI50 (BT-549) | GI50 (COLO 205) | GI50 (HCC 2998) | GI50 (HCT-116) | GI50 (KM12) | GI50 (MDA-N) | GI50 (Malme-3M) | GI50 (NCI-H23) | GI50 (OVCAR-5) | GI50 (OVCAR-8) | GI50 (RPMI-8226) | GI50 (SF-295) | GI50 (SF-539) | GI50 (SK-MEL-28) | GI50 (TK-10) | GI50 (UACC-62) | GI50 (CCRF-CEM)
1 | CC1(C)OC2CN(C(=O)OCc3ccccc3)C(CO)C2O1 (centres undefined) | > 100 µM (inactive) | > 100 µM (inactive) | > 100 µM (inactive) | > 100 µM (inactive) | > 100 µM (inactive) | > 100 µM (inactive) | > 100 µM (inactive) | > 100 µM (inactive) | > 100 µM (inactive) | > 100 µM (inactive) | > 100 µM (inactive) | > 100 µM (inactive) | > 100 µM (inactive) | > 100 µM (inactive) | > 100 µM (inactive) | > 100 µM (inactive) | > 100 µM (inactive) | > 100 µM (inactive) | 
2 | N#CCCN(CCC#N)c1ccc(/C=C2\N=C(c3ccccc3)N(c3ccccn3)C2=O)cc1 | > 100 µM (inactive) | > 100 µM (inactive) | > 100 µM (inactive) | > 100 µM (inactive) |  | > 100 µM (inactive) | > 100 µM (inactive) | > 100 µM (inactive) | > 100 µM (inactive) |  | > 100 µM (inactive) | > 100 µM (inactive) | > 100 µM (inactive) | > 100 µM (inactive) | > 100 µM (inactive) | > 100 µM (inactive) | > 100 µM (inactive) | > 100 µM (inactive) | > 100 µM (inactive)
3 | NS(=O)(=O)c1ccc(NC(=S)N/C=C2\C(=O)Nc3ccccc3C2=O)cc1 |  | > 100 µM (inactive) | > 100 µM (inactive) | > 100 µM (inactive) | > 100 µM (inactive) | > 100 µM (inactive) | > 100 µM (inactive) | > 100 µM (inactive) |  | > 100 µM (inactive) | > 100 µM (inactive) | > 100 µM (inactive) | > 100 µM (inactive) | > 100 µM (inactive) | > 100 µM (inactive) | > 100 µM (inactive) | > 100 µM (inactive) | > 100 µM (inactive) | > 100 µM (inactive)
4 | COc1ccccc1N1C(=O)/C(=C\c2ccccc2)SC1c1cc(OC)c(OC)c(OC)c1 (centres undefined) | 55.6 µM (inactive) | 74.1 µM (inactive) | 34.8 µM (inactive) | 35.9 µM (inactive) | 37.3 µM (inactive) | 31.8 µM (inactive) | 32.1 µM (inactive) | 17.9 µM (inactive) | 45.5 µM (inactive) | 43.9 µM (inactive) | 62.5 µM (inactive) | 42 µM (inactive) |  | 30.1 µM (inactive) |  | 54 µM (inactive) | > 100 µM (inactive) | 30.2 µM (inactive) | 
5 | O=CN(CCN1CCCC1)C1CCc2cc(Cl)c(Cl)cc2C1 (centres undefined) |  |  | 14.1 µM (inactive) | 20.4 µM (inactive) | 17.5 µM (inactive) | 10.6 µM (inactive) | 4.5 µM (inactive) | 10 µM (inactive) | 13.6 µM (inactive) | 17.4 µM (inactive) | 17.4 µM (inactive) | 20.6 µM (inactive) | 20.6 µM (inactive) | 0.166 µM (active) | 30.5 µM (inactive) |  | 16.3 µM (inactive) |  | 22.5 µM (inactive)
6 | CCOP(=O)(OCC)C(C)(CC)NC1=NC(C(F)(F)F)(C(F)(F)F)NC(=O)N1 (centres undefined) |  | > 100 µM (inactive) | > 100 µM (inactive) | > 100 µM (inactive) | > 100 µM (inactive) | > 100 µM (inactive) | > 100 µM (inactive) | > 100 µM (inactive) | > 100 µM (inactive) | > 100 µM (inactive) | > 100 µM (inactive) | > 100 µM (inactive) | > 100 µM (inactive) | > 100 µM (inactive) | > 100 µM (inactive) | > 100 µM (inactive) | > 100 µM (inactive) | > 100 µM (inactive) | > 100 µM (inactive)
7 | C=CCC(C(=O)Nc1cccc2nc[nH]c12)C(=O)OCC (centres undefined) | > 100 µM (inactive) | > 100 µM (inactive) | > 100 µM (inactive) |  | > 100 µM (inactive) | > 100 µM (inactive) | > 100 µM (inactive) | > 100 µM (inactive) |  |  | > 100 µM (inactive) | > 100 µM (inactive) | > 100 µM (inactive) | > 100 µM (inactive) | > 100 µM (inactive) | > 100 µM (inactive) | > 100 µM (inactive) | 85.3 µM (inactive) | 
8 | CC(=O)c1ccc(O)c(CN(C2CCCCC2)C2CCCCC2)c1O | > 100 µM (inactive) | > 100 µM (inactive) | > 100 µM (inactive) | > 100 µM (inactive) |  | > 100 µM (inactive) | > 100 µM (inactive) | > 100 µM (inactive) | > 100 µM (inactive) | > 100 µM (inactive) | > 100 µM (inactive) | > 100 µM (inactive) | > 100 µM (inactive) | > 100 µM (inactive) | > 100 µM (inactive) | > 100 µM (inactive) | 74.3 µM (inactive) | > 100 µM (inactive) | 0.0611 µM (active)
